Earlier results, collected in patent publication US20170265459A1, “PROPAGULE COATINGS” (E I DU PONT DE NEMOURS AND COMPANY, priority 2014, published 2017).

| SMILES | water solubility at 20° C. |
| --- | --- |
| CNC(=O)c1cc(Cl)cc(C)c1NC(=O)c1cc(Br)nn1-c1ncccc1Cl [Chlorantraniliprole, chlorantraniliprole] | about 1 milligram per liter |
| CNC(=O)c1cc(C#N)cc(C)c1NC(=O)c1cc(Br)nn1-c1ncccc1Cl [Cyantraniliprole, cyantraniliprole] | about 14.2 milligram per liter |
